The subject of data set [1] is elderly patients with systolic hypertension. In words: Group I: double-blind randomised crossover study of single doses in patients with systolic hypertension, no baseline angiotensin II inhibition. Particulars: for Sitting brachial blood pressure systolic: at 11.00 h after single dose at 08.00 h (ISMN 60 mg, captopril 25 mg, eprosartan 600 mg), placebo 173 ± 3; for Sitting brachial blood pressure systolic / Heart rate (sitting) / Sitting brachial blood pressure diastolic / Standing brachial blood pressure diastolic / Standing brachial blood pressure systolic / decrease in P1 (aortic first peak pressure) at nadir / decrease in P2 (augmentation pressure) at nadir: mean ± SEM; for Heart rate (sitting) / Sitting brachial blood pressure diastolic / Standing brachial blood pressure diastolic / Standing brachial blood pressure systolic: at 11.00 h after single dose at 08.00 h; for Heart rate (sitting): placebo 60 ± 4; for Sitting brachial blood pressure diastolic: placebo 82 ± 3; for Standing brachial blood pressure diastolic: placebo 83 ± 3; for Standing brachial blood pressure systolic: placebo 166 ± 4; for effect on augmentation index: post-dose observation period; for effect on aortic systolic blood pressure: ISMN and captopril P<0.0001, eprosartan P<0.001; for aortic systolic pressure lower than control at nadir of hypotensive effect: nadir ISMN 10.00 h, captopril 11.00 h, eprosartan 09.00 h. An excerpt: The subjects were sixteen patients with long-standing hypertension, referred from their family physicians after having undergone treatment trials using a variety of conventional antihypertensive agents without reaching satisfactory control of systolic blood pressure. […] Plasma creatinine concentration was <0.15 mmol/l in every case. There was a history of myocardial infarction Or coronary bypass grafting in eight subjects, of peripheral vascular disease in four, and of diabetes mellitus (not requiring medication) in one. All patients were fully ambulant without symptomatic cardiac disease or known vascular aneurysm. Their current regimen of antihypertensive therapy had been stable for three weeks or more, and was continued unchanged through the present study. None had received nitrate therapy previously. Two different study protocols were used. One patient participated in both protocols with a 15-month break in between. Entry to either study required that systolic blood pressure should be between 150 and 200 mmHg, and that diastolic blood pressure should be equal to or less than 100 mmHg.
Group I protocol. […] Their baseline anti-hypertensive therapy, which excluded ACE inhibitors and angiotensin II receptor antagonists, consisted of one to three of the following drugs in conventional dosage:. diuretics (7 cases), beta blockers (7), prazosin (1), amlodipine (4), nifedipine controlled-release formulation (2). […] The pulse wave and pulse rate were measured at the same intervals. Between observations, the subjects engaged in sedentary recreational activities in a temperature-controlled environment.
Brachial blood pressure was recorded by sphygmomanometer, and pulse wave tonometry was performed at the radial artery with the patient seated. The aortic pulse wave form was determined and the aortic first peak pressure (P1) and augmentation pressure (P2) were quantified by computer software (SphygmoCor, AtCor Medical, Sydney), as previously reported.^13 Augmentation index (P2 expressed as % of pulse pressure) described the magnitude of wave reflection. Statistical analysis was by repeated measures analysis of variance using PRISM (GraphPad Software Inc., San Diego, Calif.) and post-hoc paired t tests. Values given are mean±SEM.

The test system of data set [2] is elderly patients with systolic hypertension on chronic angiotensin II inhibitors. The data set can be described thus: Group II: double-blind randomised crossover study of single-dose ISMN in patients with AII inhibition at baseline. It counts as in vivo, human. Particulars: for decrease in sitting diastolic pressure: not significant. Here is the method:
None had received nitrate therapy previously. Two different study protocols were used. […] Group II protocol. […] The two study days were one to two weeks apart. Observations were made from 0800 h to 1600 h as in Group I. These subjects differed from Group I in that they were receiving treatment at study entry with ACE inhibitor or angiotensin II receptor antagonist drugs, as follows: monopril 10 mg/d (1 case), captopril 50 mg/d (1), ramipril 10 mg/day (1), ramipril 10 mg/d and candesartan 16 mg/d (1), irbesartan 300 mg/d (1), telmisartan 40 mg/d (1). Their other baseline antihypertensive drug therapy consisted of 1-2 of the following agents in conventional dosage: hydrochlorthiazide (1), beta blockers (2), amlodipine (1), diltiazem controlled-delivery formulation (2). […] Values given are mean±SEM.

The conditions of data set [3]: reported in literature (refs 15-17); cited from earlier work.

Molecules are shown by their SMILES.

With `O=[N+]([O-])O[C@@H]1CO[C@H]2[C@@H]1OC[C@@H]2O` [ISMN, isosorbide mononitrate], the “peak decrease in augmentation index” value in data set [1] (FIGS. 1 and 2 (Groups I and II)) is “approximately 50 % of control”. Also, in data set [1] (Group I, ISMN 60 mg single dose, control 37.9±1.0%), the “average post-dose decrease in augmentation index” value is given as 15±1%. Further, the “average post-dose decrease in aortic systolic pressure” value in data set [1] (Group I, ISMN 60 mg single dose, control 160±2) came to 29±2 mmHg. Besides, in data set [1] (Group I), the “Sitting brachial blood pressure systolic” value came out at 145 ± 5 mm Hg, the “Heart rate (sitting)” value is recorded as 60 ± 5 bpm, the “Sitting brachial blood pressure diastolic” value worked out at 77 ± 3 mm Hg and the “Standing brachial blood pressure diastolic” value is given as 77 ± 3 mm Hg. Besides, in data set [1] (Group I), the “Standing brachial blood pressure systolic” value is recorded as 139 ± 4 mm Hg and the “effect on augmentation index” value is “significantly reduced”. Moreover, in data set [1] (Group I, single dose), the “effect on aortic systolic blood pressure” value is “significantly decreased”, the “decrease in P1 (aortic first peak pressure) at nadir” value (from here on “decrease in P1”) stood at 11±2 mmHg, the “decrease in P2 (augmentation pressure) at nadir” value (shortened to “decrease in P2”) came out at 19±3 mm Hg and the “aortic systolic pressure lower than control at nadir of hypotensive effect” value turned out to be 34 mm Hg. In data set [1] (Group I, single dose, P<0.001), the “Heart rate average post-dose increase” value came to 3±1 b.p.m. Moreover, in data set [1] (extended-release preparation, observation to 16.00 h), the “duration of depressor effect” value is listed as “sustained through the remainder of the observation period”. Further, the “average post-dose decrease in augmentation index” value in data set [2] (Group II (baseline AII inhibition), ISMN 60 mg single dose, control 38.5±1.1%) came out at 16±1%. In data set [2] (Group II (baseline AII inhibition), ISMN 60 mg single dose, control 154±2), the “average post-dose decrease in aortic systolic pressure” value came to 34±3 mmHg. Moreover, in data set [2] (Group II, P<0.0001), the “effect on sitting and standing brachial systolic blood pressure” value is “decreased”. Also, in data set [2] (Group II, at 12.00 h, from control value 176, P<0.001), the “decrease in sitting brachial systolic blood pressure” value came out at 37 mm Hg. In addition, the “decrease in sitting diastolic pressure” value in data set [2] (Group II, at 12.00 h) was 13 mm Hg. For the same compound, the “decrease in sitting brachial systolic blood pressure” value in data set [2] (Group II, at 16.00 h, from control value 173, P<0.001) amounted to 34 mm Hg. Also, in data set [2] (Group II, at 16.00 h), the “decrease in sitting diastolic pressure” value stood at 10 mm Hg. Also, the “Heart rate, overall mean value” in data set [2] (Group II, increased from mean value of 60, P<0.001) came out at 64 bpm. Besides, the “time to reach peak plasma concentration” value in data set [3] is 3 to 4 h.

For `CCCCc1ncc(/C=C(\Cc2cccs2)C(=O)O)n1Cc1ccc(C(=O)O)cc1` [Eprosartan, eprosartan], in data set [1] (Group I), the “Sitting brachial blood pressure systolic” value stood at 158 ± 5 mm Hg, the “Heart rate (sitting)” value is 59 ± 4 bpm, the “Sitting brachial blood pressure diastolic” value was 78 ± 3 mm Hg and the “Standing brachial blood pressure diastolic” value is on record as 83 ± 4 mm Hg. Further, in data set [1] (Group I), the “Standing brachial blood pressure systolic” value turned out to be 152 ± 4 mm Hg and the “effect on augmentation index” value is “Neither captopril nor eprosartan altered”. Further, in data set [1] (Group I, single dose), the “effect on heart rate” value is recorded as “not changed”, the “effect on aortic systolic blood pressure” value is reported as “significantly decreased”, the “decrease in P1” value came to 4±2 mmHg and the “decrease in P2” value is 6±3 mm Hg. Besides, the “aortic systolic pressure lower than control at nadir of hypotensive effect” value in data set [1] (Group I, single dose) turned out to be 15 mm Hg. Besides, in data set [3], the “time to reach peak plasma concentration” value is 1 to 2 h.

In the case of `C[C@H](CS)C(=O)N1CCC[C@H]1C(=O)O` [Captopril, captopril], in data set [1] (Group I), the “Sitting brachial blood pressure systolic” value is on record as 148 ± 5 mm Hg, the “Heart rate (sitting)” value was found to be 59 ± 4 bpm, the “Sitting brachial blood pressure diastolic” value was 78 ± 2 mm Hg and the “Standing brachial blood pressure diastolic” value stood at 78 ± 2 mm Hg. For the same compound, in data set [1] (Group I), the “Standing brachial blood pressure systolic” value came to 143 ± 5 mm Hg and the “effect on augmentation index” value is reported as “Neither captopril nor eprosartan altered”. Moreover, in data set [1] (Group I, single dose), the “effect on heart rate” value is listed as “not changed”, the “effect on aortic systolic blood pressure” value is “significantly decreased”, the “decrease in P1” value turned out to be 9±2 mmHg and the “decrease in P2” value was determined as 9±3 mm Hg. Also, in data set [1] (Group I, single dose), the “aortic systolic pressure lower than control at nadir of hypotensive effect” value is recorded as 23 mm Hg. Further, the “time to reach peak plasma concentration” value in data set [3] is on record as 1 h.

Source of the values: patent publication US20070009614A1, “Composition and method for treating hypertension” (Northern Sydney Area Health Service, priority 2002, published 2007).
